Patent US20120215126A1, “DETERMINING DYNAMIC AIRWAY RESPONSE IN A SUBJECT” (priority 2009, published 2012)

System: subject's respiratory system
Assay: acoustic transmission (transfer function magnitude) monitoring of a subject's broncho-dynamic response
Type: in vivo
Details: FIG. 11, subject with exacerbation of asthma; combined treatment with Salbutamol and Ipratropium Bromide, treatment and recovery phase
Method: This involves introducing a sound signal having known characteristics into the airway of a subject in a step 101. The signal propagates through the lung and chest tissues to the chest wall and is detected in steps 102, 105 using one or more transducers attached to the subject at one or more locations on the thoracic surface. Preferably, baseline acoustic transmission is determined in a step 103. In a step 106, changes in the detected signal are monitored during and after administration of a broncho-effector (step 104). These changes are indicative the subject's airway response (i.e. changes in airway patency due do constriction, dilation or mucus production). The test is terminated in step 107. […] By positioning the reference transducer here, the transfer function calculated by processor 205 represents the acoustic transmission of subject's respiratory system including the lower airways, alveolar sacs, thoracic tissues etc., but excludes the effects of the apparatus used to introduce the sound (e.g. loudspeaker, tubing) and the upper airways. […] The introduced sound signal is transmitted through the subject's airways, lung parenchyma and chest wall tissues such as muscle, ribs, skin etc. and in a step 102, is detected at one or more locations on the thoracic surface. […]

| Compound | airway patency |
| --- | --- |
| CC(C)[N+]1(C)[C@@H]2CC[C@H]1CC(OC(=O)C(CO)c1ccccc1)C2.[Br-] (some centres unmarked) [Ipratropium Bromide] | gradual improvement |
| CC(C)(C)NCC(O)c1ccc(O)c(CO)c1 (centres unmarked) [Salbutamol] | gradual improvement |
